Experimental data published in patent US10335409B2 (priority 2012, dated 2019).

Tests used:
[1] = tested on: genotype 2a (JFH-1) stable HCV replicon in Huh-7-derived cells; test: Stable subgenomic HCV replicon EC50, genotype 2a (Renilla luciferase); type: cell-based, hepatitis C virus; conditions: Hepatitis C virus, stable replicon genotype 2a, 72 h, read-out: EC50 2A RLUC
Outline: (§1)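 Compounds, three-fold diluted, were applied to Huh-7-derived cells harbouring luciferase replicons (genotype 1a H77, 1b Con1, 2a JFH-1, 4a ED43, with strain-specific adaptive mutations). Seventy-two hours later, intracellular replication was gauged by Renilla luciferase activity and EC50 derived by regression.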

[2] = target: HCV NS3 protease domain genotype 3a (Hepatitis C virus genotype 3a, UniProt Q81258); test: Ki determination, NS3 protease genotype 3a (fluorogenic depsipeptide substrate); type: biochemical; conditions: 200 pM enzyme, NS4A peptide
Outline: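 The NS3 protease domain (aa 1-181) with 20 μM NS4A peptide was used at 50 pM with 4 μM substrate (1b) or at 200 pM with 2 μM substrate (3a). Inhibitors (100 nM-5 pM) were pre-incubated 1 h at room temperature in HEPES/glycerol/DTT buffer with 10% DMSO. Steady-state rates (90-120 min) gave Ki via the Morrison equation, corrected for active enzyme and [S]/Km.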

[3] = tested on: genotype 1b NS3/4a protease inhibitor resistant variant D168A transient HCV replicon in Huh-7-derived cells; test: Transient-transfected HCV replicon EC50, genotype 1b D168A; type: cell-based, hepatitis C virus; conditions: Hepatitis C virus, 72 h, read-out: EC50 1B D168A, transient-transfected replicon genotype 1b D168A resistant variant, 72 h
[4] = tested on: genotype 1a (H77) stable HCV replicon in Huh-7-derived cells; test: Stable subgenomic HCV replicon EC50, genotype 1a (Renilla luciferase); type: cell-based, hepatitis C virus; conditions: Hepatitis C virus, stable replicon genotype 1a, 72 h, read-out: EC50 1A RLUC
Outline: as §1

[5] = tested on: genotype 1b (Con1) stable HCV replicon in Huh-7-derived cells; test: Stable subgenomic HCV replicon EC50, genotype 1b (Renilla luciferase); type: cell-based, hepatitis C virus; conditions: Hepatitis C virus, stable replicon genotype 1b, 72 h, read-out: EC50 1B RLUC
Outline: as §1

[6] = tested on: genotype 3a (S52) stable HCV replicon in Huh-7-derived cells; test: Stable subgenomic HCV replicon EC50, genotype 3a (Renilla luciferase); type: cell-based, hepatitis C virus; conditions: Hepatitis C virus, 72 h, read-out: EC50 3A RLUC
[7] = tested on: genotype 1a (H77) wild type transient HCV replicon in Huh-7-derived cells; test: Transient-transfected HCV replicon EC50, genotype 1a wild type; type: cell-based, hepatitis C virus; conditions: Hepatitis C virus, 72 h, transient-transfected replicon genotype 1a wild type, read-out: EC50 1A WT
[8] = tested on: genotype 4a (ED43) stable HCV replicon in Huh-7-derived cells; test: Stable subgenomic HCV replicon EC50, genotype 4a (Renilla luciferase); type: cell-based, hepatitis C virus; conditions: Hepatitis C virus, 72 h, read-out: EC50 4A RLUC
Outline: as §1

[9] = tested on: genotype 3a (S52) wild type transient HCV replicon in Huh-7-derived cells; test: Transient-transfected HCV replicon EC50, genotype 3a wild type; type: cell-based, hepatitis C virus; conditions: Hepatitis C virus; transient-transfected replicon genotype 3a wild type, 72 h; read-out: EC50 3A WT
[10] = tested on: genotype 1b (Con1) wild type transient HCV replicon in Huh-7-derived cells; test: Transient-transfected HCV replicon EC50, genotype 1b wild type; type: cell-based, hepatitis C virus; conditions: Hepatitis C virus, 72 h, transient-transfected replicon genotype 1b wild type, read-out: EC50 1B WT
[11] = target: HCV NS3 protease domain genotype 1b (Hepatitis C virus genotype 1b (isolate Con1), UniProt Q9WMX2, E1202G); test: Ki determination, NS3 protease genotype 1b (fluorogenic depsipeptide substrate); type: biochemical; conditions: 50 pM enzyme, NS4A peptide
Description: Purified NS3 protease domain (amino acids 1-181) of the genotype 1b and 3a virus were generated as above.
Reactions were run at room temperature in buffer consisting of 50 mM HEPES, 40% glycerol, 0.05% Triton X-100, 10 mM DTT, and 10% DMSO. The final assay solutions contained 50 pM NS3 genotype 1 b protease or 200 pM genotype 3a protease, 20 μM NS4A peptide, and 4 μM substrate (genotype 1b) or 2 μM substrate (genotype 3a). Inhibitor concentrations varied from 100 nM to 5 pM in 3-fold dilutions, and no-inhibitor controls were included.
Compound dilutions were made in DMSO at 20× final concentration. Reaction mixtures were prepared in 96-well assay plates. A solution of enzyme and NS4A peptide in assay buffer (25 μL volume with both reagents at 4× final concentration) was mixed with 45 μL assay buffer and 5 μL of either inhibitor or DMSO, and pre-incubated at room temperature for 1 hour. The reaction was started by addition of 25 μL substrate solution at 4× final concentration. Plates were mixed vigorously for 5-10 seconds and reactions were allowed to proceed for 90 minutes, fluorescence was measured every 30 s between 90 and 120 minutes reaction time using a Tecan InfiniTe M1000 or PerkinElmer Envision multimode plate reader with an excitation wavelength of 340 nm and an emission wavelength of 490 nm.
To determine the Ki, rates were plotted as a function of inhibitor concentration, and the data were fit with equation 1 (Morrison, J. F., Biochimica et Biophysica Acta 1969, 185, 269-286) to calculate Ki^app using GraphPad Prism 5. […] Ki was calculated from Ki^app/(1+[[S]/Km]).

[12] = tested on: genotype 1a NS3/4a protease inhibitor resistant variant R155K transient HCV replicon in Huh-7-derived cells; test: Transient-transfected HCV replicon EC50, genotype 1a R155K; type: cell-based, hepatitis C virus; conditions: Hepatitis C virus, 72 h, read-out: EC50 1A R155K, transient-transfected replicon genotype 1a R155K resistant variant, 72 h

Chain of HCV NS3 protease domain genotype 3a (Q81258 whole entry, looked up, the tested form may be a part): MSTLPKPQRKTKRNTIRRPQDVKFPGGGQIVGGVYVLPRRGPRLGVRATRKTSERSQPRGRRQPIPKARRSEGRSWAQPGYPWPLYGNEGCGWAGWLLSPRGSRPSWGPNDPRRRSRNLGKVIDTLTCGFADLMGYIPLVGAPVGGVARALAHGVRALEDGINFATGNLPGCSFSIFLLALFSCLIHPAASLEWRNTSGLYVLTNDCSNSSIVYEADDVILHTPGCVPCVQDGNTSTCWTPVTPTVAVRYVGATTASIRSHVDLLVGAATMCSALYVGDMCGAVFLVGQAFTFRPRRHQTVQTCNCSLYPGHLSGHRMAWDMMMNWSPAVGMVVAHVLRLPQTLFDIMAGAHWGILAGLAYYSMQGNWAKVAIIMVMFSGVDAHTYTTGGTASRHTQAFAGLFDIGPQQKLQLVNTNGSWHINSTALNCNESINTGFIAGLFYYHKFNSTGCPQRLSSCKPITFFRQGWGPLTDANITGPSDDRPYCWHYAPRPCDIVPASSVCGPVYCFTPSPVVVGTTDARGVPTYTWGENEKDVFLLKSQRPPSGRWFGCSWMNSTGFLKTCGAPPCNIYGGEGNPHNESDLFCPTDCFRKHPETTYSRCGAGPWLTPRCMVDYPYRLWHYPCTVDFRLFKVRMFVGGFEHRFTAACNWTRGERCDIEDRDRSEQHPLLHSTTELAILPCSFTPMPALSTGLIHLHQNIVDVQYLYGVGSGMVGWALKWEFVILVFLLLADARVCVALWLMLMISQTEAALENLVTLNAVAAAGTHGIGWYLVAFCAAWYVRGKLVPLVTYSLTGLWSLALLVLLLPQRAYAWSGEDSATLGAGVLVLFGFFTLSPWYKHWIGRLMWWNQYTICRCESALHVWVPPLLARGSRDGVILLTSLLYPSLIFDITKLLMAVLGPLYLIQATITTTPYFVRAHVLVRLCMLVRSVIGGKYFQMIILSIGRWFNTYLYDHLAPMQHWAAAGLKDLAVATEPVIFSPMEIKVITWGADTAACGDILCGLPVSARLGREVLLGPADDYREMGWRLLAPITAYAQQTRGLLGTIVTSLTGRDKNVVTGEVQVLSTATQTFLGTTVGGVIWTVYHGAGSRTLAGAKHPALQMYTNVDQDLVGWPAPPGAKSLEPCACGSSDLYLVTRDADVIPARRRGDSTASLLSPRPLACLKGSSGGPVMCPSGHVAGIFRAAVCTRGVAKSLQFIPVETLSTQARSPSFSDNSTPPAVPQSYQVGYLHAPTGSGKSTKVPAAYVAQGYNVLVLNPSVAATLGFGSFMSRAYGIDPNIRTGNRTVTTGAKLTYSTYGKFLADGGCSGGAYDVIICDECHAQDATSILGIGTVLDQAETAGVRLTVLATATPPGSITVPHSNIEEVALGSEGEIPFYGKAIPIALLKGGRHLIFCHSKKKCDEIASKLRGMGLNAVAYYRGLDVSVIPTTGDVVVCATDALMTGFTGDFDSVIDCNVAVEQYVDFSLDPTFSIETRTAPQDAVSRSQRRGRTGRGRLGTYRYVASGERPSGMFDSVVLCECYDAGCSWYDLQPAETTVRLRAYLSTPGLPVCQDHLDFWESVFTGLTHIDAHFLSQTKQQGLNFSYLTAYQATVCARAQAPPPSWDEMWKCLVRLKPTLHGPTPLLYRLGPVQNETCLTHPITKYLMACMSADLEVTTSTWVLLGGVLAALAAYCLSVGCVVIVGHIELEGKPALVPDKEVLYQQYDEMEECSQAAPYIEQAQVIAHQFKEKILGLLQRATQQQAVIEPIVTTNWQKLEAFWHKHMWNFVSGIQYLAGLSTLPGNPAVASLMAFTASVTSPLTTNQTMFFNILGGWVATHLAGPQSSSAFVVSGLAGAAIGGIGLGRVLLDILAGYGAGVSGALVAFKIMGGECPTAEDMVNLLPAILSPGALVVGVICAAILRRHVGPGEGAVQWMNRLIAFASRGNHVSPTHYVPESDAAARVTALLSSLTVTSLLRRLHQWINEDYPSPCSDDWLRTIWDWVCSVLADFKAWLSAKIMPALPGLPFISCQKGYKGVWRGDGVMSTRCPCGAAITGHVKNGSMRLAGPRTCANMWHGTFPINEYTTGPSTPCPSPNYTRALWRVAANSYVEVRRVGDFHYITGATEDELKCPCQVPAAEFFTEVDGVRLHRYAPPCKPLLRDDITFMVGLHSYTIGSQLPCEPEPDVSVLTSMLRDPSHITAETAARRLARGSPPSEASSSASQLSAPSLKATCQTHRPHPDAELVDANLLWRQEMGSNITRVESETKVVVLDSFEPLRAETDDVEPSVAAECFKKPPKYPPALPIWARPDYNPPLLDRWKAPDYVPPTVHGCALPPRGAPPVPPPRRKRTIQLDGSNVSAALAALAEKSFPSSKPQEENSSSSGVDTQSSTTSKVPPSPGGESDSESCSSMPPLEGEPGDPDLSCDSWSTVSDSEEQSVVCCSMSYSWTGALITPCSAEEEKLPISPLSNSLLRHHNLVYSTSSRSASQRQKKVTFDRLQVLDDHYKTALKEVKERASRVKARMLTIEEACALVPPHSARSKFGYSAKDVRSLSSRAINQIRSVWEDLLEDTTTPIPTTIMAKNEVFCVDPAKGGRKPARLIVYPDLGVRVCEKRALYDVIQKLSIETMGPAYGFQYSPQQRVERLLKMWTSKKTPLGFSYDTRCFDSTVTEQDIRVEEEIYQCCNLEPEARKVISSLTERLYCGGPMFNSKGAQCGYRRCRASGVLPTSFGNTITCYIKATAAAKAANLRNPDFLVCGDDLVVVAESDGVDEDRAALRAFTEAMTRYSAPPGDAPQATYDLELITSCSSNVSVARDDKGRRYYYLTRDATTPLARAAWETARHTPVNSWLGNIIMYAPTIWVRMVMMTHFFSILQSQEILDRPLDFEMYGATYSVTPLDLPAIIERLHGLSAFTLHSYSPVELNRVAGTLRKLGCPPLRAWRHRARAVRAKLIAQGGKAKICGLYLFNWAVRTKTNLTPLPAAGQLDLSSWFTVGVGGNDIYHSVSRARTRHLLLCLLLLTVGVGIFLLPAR
Chain of HCV NS3 protease domain genotype 1b (Q9WMX2 1027-1208 E1202G): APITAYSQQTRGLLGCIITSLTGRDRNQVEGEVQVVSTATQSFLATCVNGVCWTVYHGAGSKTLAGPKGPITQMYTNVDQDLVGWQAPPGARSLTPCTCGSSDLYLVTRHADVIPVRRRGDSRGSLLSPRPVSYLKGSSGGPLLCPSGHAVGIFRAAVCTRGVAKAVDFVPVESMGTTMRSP

SMILES	EC50 [1]	Ki [2]	EC50 [3]	EC50 [4]	EC50 [5]	EC50 [6]	EC50 [7]	EC50 [8]	EC50 [9]	EC50 [10]	Ki [11]	EC50 [12]
COc1ccc2nc3c(nc2c1)O[C@H]1CN(C(=O)[C@H](C(C)(C)C)NC(=O)O[C@@H]2C[C@@H]4C[C@@H]4[C@H]2CCCCC3)[C@H](C(=O)NC2(C(=O)NS(=O)(=O)C3CC3)C[C@H]2C(F)F)[C@@H]1C (stereo in doubt) [Example 33, (1aS,2aR,6S,9S,10S,11R,23aR,23bS)-6-tert-butyl-N-[(1 S,2R)-1-[(cyclopropylsulfonyl)carbamoyl]-2-(difluoromethyl)cyclopropyl]-15-methoxy-10-methyl-4,7-dioxo-1a,2,2a,4,5,6,7,10,11,19,20,21,22,23,23a,23b-hexadecahydro-1H,9H-8,11-methanocyclopropa[4′,5′]cyclopenta[1′,2′:18,19][1,10,3,6]dioxadiazacyclononadecino[11,12-b]quinoxaline-9-carboxamide]	4.9 nM	0.06 nM	4.2 nM	7.6 nM	2.8 nM	16 nM	2.6 nM	2.3 nM	5.3 nM	1.6 nM	0.03 nM	2.5 nM
CC[C@@H]1[C@@H]2CN(C(=O)[C@H](C(C)(C)C)NC(=O)O[C@@H]3C[C@H]3CCCCCc3nc4ccc(OCC(F)(F)F)cc4nc3O2)[C@@H]1C(=O)N[C@]1(C(=O)NS(=O)(=O)C2(C)CC2)C[C@H]1C(F)F [Example 55, (1aR,5S,8S,9S,10R,22aR)-5-tert-butyl-N-[(1R,2R)-2-(difluoromethyl)-1-{[(1-methylcyclopropyl)sulfonyl]carbamoyl}cyclopropyl]-9-ethyl-3,6-dioxo-14-(2,2,2-trifluoroethoxy)-1,1a,3,4,5,6,9,10,18,19,20,21,22,22a-tetradecahydro-8H-7,10-methanocyclopropa[18,19][1,10,3,6]dioxadiazacyclononadecino[11,12-b]quinoxaline-8-carboxamide]	12 nM	0.2 nM	53 nM	13 nM	3.8 nM	140 nM	8 nM	3.5 nM	71 nM	2.3 nM	0.09 nM	32 nM
CC[C@@H]1[C@@H]2CN(C(=O)[C@H](C(C)(C)C)NC(=O)O[C@@H]3C[C@@H]4C[C@@H]4[C@H]3CCCCC(F)(F)c3nc4ccc(OC)cc4nc3O2)[C@@H]1C(=O)N[C@]1(C(=O)NS(=O)(=O)C2CC2)C[C@H]1C(F)F [Example 59, (1aS,2aR,6S,9S,10 S,11R,23aR,23bS)-6-tert-butyl-N-[(1R,2R)-1-[(cyclopropylsulfonyl)carbamoyl]-2-(difluoromethyl)cyclopropyl]-10-ethyl-19,19-difluoro-15-methoxy-4,7-dioxo-1a,2,2a,4,5,6,7,10,11,19,20,21,22,23,23a,23b-hexadecahydro-1H,9H-8,11-methanocyclopropa[4′,5′]cyclopenta[1′,2′:18,19][1,10,3,6]dioxadiazacyclononadecino[11,12-b]quinoxaline-9-carboxamide]	13 nM	0.06 nM	6.4 nM	5.4 nM	11 nM	20 nM	10 nM	5.6 nM	15 nM	6.8 nM	0.04 nM	6.8 nM
CCC[C@@H]1[C@@H]2CN(C(=O)[C@H](C(C)(C)C)NC(=O)O[C@@H]3C[C@H]3CCCCC(F)(F)c3nc4ccc(OC)cc4nc3O2)[C@@H]1C(=O)N[C@]1(C(=O)NS(=O)(=O)C2CC2)C[C@H]1C(F)F [Example 60, (1aR,5S,8S,9S,10R,22aR)-5-tert-butyl-N-[(1R,2R)-1-[(cyclopropylsulfonyl)carbamoyl]-2-(difluoromethyl)cyclopropyl]-18,18-difluoro-14-methoxy-3,6-dioxo-9-propyl-1,1a,3,4,5,6,9,10,18,19,20,21,22,22a-tetradecahydro-8H-7,10-methanocyclopropa[18,19][1,10,3,6]dioxadiazacyclononadecino[11,12-b]quinoxaline-8-carboxamide]	7.7 nM	0.08 nM	15 nM	11 nM	4.8 nM	45 nM	5.8 nM	5.4 nM	9.8 nM	2.3 nM	0.04 nM	8.6 nM
COc1ccc2nc3c(nc2c1)O[C@H]1CN(C(=O)[C@H](C(C)(C)C)NC(=O)O[C@@H]2C[C@@H]4C[C@@H]4[C@H]2CCCCC3(F)F)[C@H](C(=O)N[C@]2(C(=O)NS(=O)(=O)C3CC3)C[C@H]2C(F)F)[C@@H]1C [Example 62, (1aS,2aR,6S,9S,10S,11R,23aR,23bS)-6-tert-butyl-N-[(1R,2R)-1-[(cyclopropylsulfonyl)carbamoyl]-2-(difluoromethyl)cyclopropyl]-19,19-difluoro-15-methoxy-10-methyl-4,7-dioxo-1a,2,2a,4,5,6,7,10,11,19,20,21,22,23,23a,23b-hexadecahydro-1H,9H-8,11-methanocyclopropa[4′,5′]cyclopenta[1′,2′:18,19][1,10,3,6]dioxadiazacyclononadecino[11,12-b]quinoxaline-9-carboxamide]	5 nM	0.03 nM	2 nM	3.4 nM	3 nM	8.5 nM	3.5 nM	2.4 nM	4 nM	1.5 nM	0.04 nM	2.7 nM
CC[C@@H]1[C@@H]2CN(C(=O)[C@H](C(C)(C)C)NC(=O)O[C@@H]3C[C@@H]4C[C@@H]4[C@H]3CCCCCc3nc4ccc(OC)cc4nc3O2)[C@@H]1C(=O)N[C@]1(C(=O)NS(=O)(=O)C2CC2)C[C@H]1C(F)F [Example 70, (1aS,2aR,6S,9S,10S,11R,23aR,23bS)-6-tert-butyl-N-[(1R,2R)-1-[(cyclopropylsulfonyl)carbamoyl]-2-(difluoromethyl)cyclopropyl]-10-ethyl-15-methoxy-4,7-dioxo-1a,2,2a,4,5,6,7,10,11,19,20,21,22,23,23a,23b-hexadecahydro-1H,9H-8,11-methanocyclopropa[4′,5′]cyclopenta[1′,2′:18,19][1,10,3,6]dioxadiazacyclononadecino[11,12-b]quinoxaline-9-carboxamide]	15 nM	0.05 nM	7.3 nM	8.4 nM	8.5 nM	41 nM	7.7 nM	6.4 nM	17 nM	6.1 nM	0.05 nM	5.4 nM
